From patent US11918662B2, “Heterocyclic compounds and imaging agents for imaging huntingtin protein” (CHDI Foundation, Inc., priority 2020, dated 2024)
pIC50: −log10 of the molar value.

Biological target: T1, MBP-HTT(1-89)Q46-His(6×) (“Exon1-Q46”) protein aggregates (Homo sapiens, UniProt P42858, INS38QQQQQQQQQQQQQQQQQQQQQQQQQ)
T1 construct: MBP-HTT(1-89)Q46-His(6×); His(6×) (C); made in house
Experiment: Exon1-Q46 Radioligand Binding Assay
Settings: not given
Protocol: Exon1-Q46 Radioligand Binding Assay
For experiments 30 μM MBP-Exon1-Q46 was incubated with 150 μg/mL thrombin in assay buffer (150 mM NaCl, 50 mM Tris pH 8.0) and 2 mM CaCl2 for 16 hours at 37° C. Aggregated Exon1-Q46 was pelleted by centrifugation for 5 minutes at 13,000 rpm in a bench top centrifuge and re-dissolved in the same volume of assay buffer. […] For the RBA, Q46 protein aggregates and test compounds were pre-incubated in assay buffer for 20 minutes at room temperature, in 100 μL/well in a 96-well plate (pp, round bottom). Then, ligand was added in 50 μL/well and incubated for 60 minutes at 37° C. Final assay concentrations were […] test compound, 1 μM Exon1-Q46 protein (equivalent monomer concentration) and 0.3 nM ligand [^3H3-methyl]-5-((5-methoxypyridin-2-yl)methoxy)-2-(pyrazin-2-yl)benzo[d]oxazole. Samples were transferred onto GF/B filter plates and washed 2× with 200 μL PBS using a Filtermate Harvester. After drying filter plates for 1 hour at 55° C., the back of the plates were sealed with foil and 30 μL/well scintillation fluid (Packard MicroScint 40) added, incubated for 15 minutes in the dark and counted in a MicroBeta reader. […] IC50 values were determined with a sigmoidal inhibition model with four variables (top, bottom, slope, IC50) in a global fit using the normalized replicate data.

T1 sequence (P42858 with tags, fused parts or gaps with the stated changes limits assumed): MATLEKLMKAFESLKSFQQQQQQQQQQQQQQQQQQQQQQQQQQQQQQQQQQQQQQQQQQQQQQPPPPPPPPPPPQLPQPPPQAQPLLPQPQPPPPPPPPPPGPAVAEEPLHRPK

Row | SMILES | pIC50
1 | CCC[CH2][Sn]([CH2]CCC)([CH2]CCC)[c]1ccc(NC(=O)CCn2c(=O)c3cnn(C)c3c3ccc(F)cc32)c(F)c1 [Example 24-1, 3-{7-Fluoro-1-methyl-4-oxo-1H,4H,5H-pyrazolo[4,3-c]quinolin-5-yl}-N-[2-fluoro-4-(tributylstannyl)phenyl]propanamide] | > 7.00

Same assay, conditions: displacement of 0.3 nM [3H3-methyl]-5-((5-methoxypyridin-2-yl)methoxy)-2-(pyrazin-2-yl)benzo[d]oxazole from 1 μM aggregated Exon1-Q46, 60 minutes at 37° C.; read-out: Potency Range (IC50)

Row | SMILES | pIC50
2 | C[C@@H]1C[C@H](C)CN(C(=O)CCCn2c(=O)c3cccn3c3ccc(F)cc32)C1 [Example 1-2] | > 7.00
3 | O=C(CCCn1c(=O)c2cccn2c2ccc(F)cc21)Nc1ccncc1 [Example 1-16] | > 7.00
4 | COc1ccnc(NC(=O)CCCn2c(=O)c3nccn3c3ccc(F)cc32)c1 [Example 5-13] | 6.30 to 7.00
5 | Cn1ncc2c(=O)n(CCC(=O)Nc3cc(F)ccc3F)c3cc(F)ccc3c21 [Example 9-21] | > 7.00
6 | O=C(CCn1c(=O)c2cccn2c2ccc(F)cc21)N1CCc2ccncc2C1 [Example 3-52] | > 7.00
7 | CC1CC(C)CN(C(=O)CCCn2c(=O)c3cccn3c3ccccc32)C1 (stereo not drawn) [Example 29-2] | > 7.00
8 | COC1CCC(NC(=O)CCn2c(=O)c3cccn3c3ccc(F)cc32)CC1 (stereo not drawn) [Example 3-29] | > 7.00
9 | O=C(CCn1c(=O)c2cccn2c2ccc(F)cc21)Nc1cccc(Cl)c1 [Example 3-25] | > 7.00
10 | COc1ccc(NC(=O)CCn2c(=O)c3c(Cl)ccn3c3ccc(F)cc32)nc1 [Example 3-61] | > 7.00
11 | COc1ccc(NC(=O)CCn2c(=O)c3cc(C)cn3c3ccc(F)cc32)nc1 [Example 3-67] | > 7.00
12 | Cc1ccc(NC(=O)CCCn2c(=O)c3cccn3c3ccc(F)cc32)cc1 [Example 1-10] | > 7.00
13 | COc1ccc(NC(=O)CCn2c(=O)c3cnn(C)c3c3ccc(F)cc32)c(F)c1 [Example 9-20] | > 7.00
14 | O=C(CCn1c(=O)c2cccn2c2ccc(F)cc21)N1Cc2ccncc2C1 [Example 3-54] | > 7.00
15 | COc1ccncc1NC(=O)CCn1c(=O)c2cnn(C)c2c2ccc(F)cc21 [Example 9-6] | > 7.00
16 | COc1ncccc1NC(=O)CCn1c(=O)c2cnn(C)c2c2ccc(F)cc21 [Example 9-1] | > 7.00
17 | O=C(CCn1c(=O)c2cccn2c2ccc(F)cc21)NCCc1ccccc1 [Example 3-30] | > 7.00
18 | Cc1cccc(NC(=O)CCCn2c(=O)c3cccn3c3ccc(F)cc32)c1 [Example 1-11] | > 7.00
19 | O=C(CCn1c(=O)c2cccn2c2ccc(F)cc21)N1Cc2ccccc2C1 [Example 3-31] | > 7.00
20 | O=C(CCn1c(=O)c2ccnn2c2ccc(F)cc21)N1CCc2ccncc21 [Example 8-13] | > 7.00
21 | O=C(CCn1c(=O)c2cccn2c2ccc(F)cc21)Nc1ccccc1Cl [Example 3-15] | > 7.00
22 | COc1ccc(NC(=O)CCn2c(=O)c3cccn3c3ccc(F)cc32)cn1 [Example 3-12] | > 7.00
23 | COC1CCN(C(=O)CCn2c(=O)c3cccn3c3ccc(F)cc32)C1 (stereo not drawn) [Example 3-40] | > 7.00
24 | O=C(Cn1c(=O)c2cccn2c2ccc(F)cc21)N1CCCCC1 [Example 29-3] | > 7.00
25 | O=C(CCCn1c(=O)c2cccn2c2ccc(F)cc21)NCCc1cccnc1 [Example 1-18] | > 7.00

Row | SMILES | pIC50
26 | O=C(CCn1c(=O)c2ccnn2c2ccc(F)cc21)N1CCc2ncccc21 [Example 8-4] | > 7.00
27 | COc1ccc(NC(=O)CCCn2c(=O)c3cccn3c3ccc(OC)cc32)nc1 [Example 5-9] | > 7.00
28 | Cn1ncc2c(=O)n(CCC(=O)Nc3ccccc3F)c3cc(F)ccc3c21 [Example 9-11] | > 7.00
29 | C[C@@H]1CN(C(=O)CCCn2c(=O)c3cccn3c3ccc(F)cc32)C[C@H](C)O1 [Example 1-5] | > 7.00
30 | Cn1nc(NC(=O)CCn2c(=O)c3cccn3c3ccc(F)cc32)ccc1=O [Example 3-9] | > 7.00
31 | Cn1ncc2c(=O)n(CCC(=O)N3CCc4ccncc43)c3cc(F)ccc3c21 [Example 9-9] | > 7.00
32 | O=C(CCCn1c(=O)c2cccn2c2ccc(F)cc21)NCC1CCCCC1 [Example 1-19] | > 7.00
33 | Cc1ccc(NC(=O)CCn2c(=O)c3cccn3c3ccccc32)cn1 [Example 3-68] | > 7.00
34 | O=C(CCn1c(=O)c2ccnn2c2ccc(F)cc21)N1Cc2cccnc2C1 [Example 8-8] | > 7.00
35 | O=C(CCn1c(=O)c2ccnn2c2ccc(F)cc21)N1CCc2cnccc21 [Example 8-6] | > 7.00
36 | O=C(CCn1c(=O)c2cccn2c2ccc(F)cc21)Nc1ccc(O)cn1 [Example 10-1, 3-{7-Fluoro-4-oxo-4H,5H-pyrrolo[1,2-a]quinoxalin-5-yl}-N-(5-hydroxypyridin-2-yl)propanamide] | > 7.00
37 | COc1cccc(NC(=O)CCCn2c(=O)c3cccn3c3cnccc32)c1 [Example 6-3] | > 7.00
38 | COc1ccnc(NC(=O)CCn2c(=O)c3cccn3c3ccc(F)cc32)c1 [Example 3-13] | > 7.00
39 | COc1cccc(NC(=O)CCCn2c(=O)c3cccn3c3ccncc32)c1 [Example 2-3] | > 7.00
40 | COc1ccc(NC(=O)CCCn2c(=O)c3cccn3c3cccnc32)cc1 [Example 4-7] | > 7.00
41 | Cn1ccc2c3ccc(F)cc3n(CCC(=O)Nc3ccc(F)cc3F)c(=O)c21 [Example 22-1, N-(2,4-Difluorophenyl)-3-{7-fluoro-3-methyl-4-oxo-3H,4H,5H-pyrrolo[2,3-c]quinolin-5-yl}propanamide] | > 7.00
42 | COc1ccc(NC(=O)CCn2c(=O)c3c(C)ccn3c3ccc(F)cc32)nc1 [Example 3-60] | > 7.00
43 | Cn1ncc2c(=O)n(CCC(=O)O)c3cc(F)ccc3c21 [Example 9-31] | 5.00 to 6.30
44 | COCCNC(=O)CCCn1c(=O)c2cccn2c2ccc(F)cc21 [Example 1-31] | 6.30 to 7.00
45 | Cc1ccccc1NC(=O)CCCn1c(=O)c2cccn2c2ccc(F)cc21 [Example 1-21] | > 7.00
46 | C[C@@H]1CN(C(=O)CCn2c(=O)c3cnn(C)c3c3ccc(F)cc32)C[C@H]1C [Example 9-24] | > 7.00
47 | Cn1ncc2c(=O)[nH]c3cc(F)ccc3c21 [Example 9-22] | > 7.00
48 | Cn1ncc2c(=O)n(CCNC(=O)c3ccccc3F)c3cc(F)ccc3c21 [Example 16-2] | > 7.00
49 | Cn1ncc2c(=O)n(CCC(=O)N3CCc4ccccc43)c3cc(F)ccc3c21 [Example 9-2] | > 7.00

Row | SMILES | pIC50
50 | O=C(CCn1c(=O)c2cccn2c2ccc(F)cc21)N1CCc2cnccc2C1 [Example 3-51] | > 7.00
51 | Cn1ncc2c(=O)n(CCC(=O)Nc3ccc(F)cc3F)c3ccc(F)cc3c21 [Example 21-2] | > 7.00
52 | Cc1ccc(CNC(=O)CCn2c(=O)c3cc(F)cn3c3ccc(F)cc32)nc1 [Example 3-63] | > 7.00
53 | CN1CCN(C(=O)CCCn2c(=O)c3cccn3c3ccc(F)cc32)CC1 [Example 1-29] | 6.30 to 7.00
54 | O=C(CCCn1c(=O)c2cccn2c2ccc(F)cc21)N1CCc2ccccc2C1 [Example 1-8] | > 7.00
55 | O=C(CCn1c(=O)c2cccn2c2ccc(F)cc21)N1CCc2cnccc21 [Example 3-58] | > 7.00
56 | COc1ccc(NC(=O)CCCn2c(=O)c3cccn3c3ccncc32)cc1 [Example 2-2] | > 7.00
57 | Cc1ccc(NC(=O)CCCn2c(=O)c3cccn3c3ccccc32)cc1 [Example 5-1] | > 7.00
58 | Cn1c2c(ccc1=O)CN(C(=O)CCn1c(=O)c3cccn3c3ccc(F)cc31)CC2 [Example 3-49] | > 7.00
59 | Cc1cccc(NC(=O)CCn2c(=O)c3cccn3c3ccc(F)cc32)c1 [Example 3-21] | > 7.00
60 | COc1ccc2c(c1)n(CCCC(=O)Nc1ccc(C)cc1)c(=O)c1cccn12 [Example 5-6] | > 7.00
61 | COc1ccnc(NC(=O)CCCn2c(=O)c3cccn3c3ccccc32)c1 [Example 5-4] | > 7.00
62 | Cn1ncc2c(=O)n(CCC(=O)Nc3ccc(Cl)cc3F)c3cc(F)ccc3c21 [Example 9-16] | > 7.00
63 | Cc1ccc(NC(=O)CCCn2c(=O)c3nccn3c3ccc(F)cc32)cc1 [Example 5-12] | > 7.00
64 | O=C(CCn1c(=O)c2ccnn2c2ccc(F)cc21)Nc1ccncc1F [Example 8-7] | > 7.00
65 | C[C@@H]1CN(C(=O)CCCn2c(=O)c3cccn3c3ccc(F)cc32)C[C@@H]1C [Example 1-47] | > 7.00
66 | Cc1ccc(NC(=O)CCCn2c(=O)c3cccn3c3ncccc32)cc1 [Example 4-1] | > 7.00
67 | O=C(CCCn1c(=O)c2cccn2c2ccc(F)cc21)NC1CCC(C(F)(F)F)CC1 (stereo not drawn) [Example 1-39] | > 7.00
68 | Cc1ccc(NC(=O)CCCn2c(=O)c3cccn3c3cnccc32)cc1 [Example 6-1] | > 7.00
69 | O=C(CCn1c(=O)c2cccn2c2ccc(F)cc21)N1Cc2cccnc2C1 [Example 3-55] | > 7.00
70 | C[C@H]1C[C@H](C)CN(C(=O)CCCn2c(=O)c3cccn3c3ccc(F)cc32)C1 [Example 1-3] | > 7.00
71 | COc1ccc(NC(=O)CCn2c(=O)c3ccnn3c3ccc(F)cc32)nc1 [Example 8-1, 3-{7-Fluoro-4-oxo-4H,5H-pyrazolo[1,5-a]quinoxalin-5-yl}-N-(5-methoxypyridin-2-yl)propanamide] | > 7.00
72 | COC1CCCN(C(=O)CCCn2c(=O)c3cccn3c3ccc(F)cc32)C1 (stereo not drawn) [Example 1-42] | > 7.00
